These results are taken from US10888567B2, “Inhibitors of tryptophan dioxygenases (IDO1 and TDO) and their use in therapy” (AUCKLAND UNISERVICES LIMITED, priority 2014, dated 2021).

Assay [1] has as its target Recombinant human IDO1 (rhIDO1) (Homo sapiens (Human), UniProt P14902). Description: Enzymatic assay for IDO1 activity. In kind it is biochemical. The note with it: rhIDO1 9 nM, 80 μM TRP, 37° C. 30 min.
The target of assay [2] is human IDO1 (LLTC-hIDO1 cells) (Homo sapiens, UniProt P14902). In words: Cell-based assay for IDO1 inhibition (kynurenine in supernatant). The note with it: IDO1-transfected Lewis Lung carcinoma cells, 24 h; read-out: Cellular IC50. Here is the method: Culture supernatant from each well was then transferred into a fresh, flat-bottomed 96-well plate, mixed with trichloroacetic acid (10% final concentration) and incubated for 20 min at 60° C. […] The absorbance of each well was read at 480 nm, and the concentration that inhibited 50% cellular enzyme activity was calculated.

Assay [3] has as its system Lewis Lung carcinoma cells transfected to express IDO1 (LLTC-hIDO1). In words: MTT cell viability in the cellular IDO1 assay. The format is cell-based. The following applies: same experiment as cellular IDO1 assay.
The target in assay [4] is human TDO (GL261 cells transfected to over-express full length human TDO) (Homo sapiens (Human), UniProt P48775). Description: Cell-based assay for TDO inhibition. The note with it: GL261 cells over-expressing human TDO, 24 h; read-out: Cellular IC50. The method, then: Culture supernatant from each well was then transferred into a fresh, flat-bottomed 96-well plate, and kynurenine content was determined as described above for the IDO1 assay, and the concentration that inhibited 50% cellular enzyme activity was calculated.

Assay [5] concerns GL261 cells transfected to over-express human TDO. Description: MTT cell viability in the cellular TDO assay. In kind it is cell-based. The following applies: same experiment as cellular TDO assay. The method, then:
The viability of the cells in each well in the same experiment was determined using the 3-(4,5-dimethylthiazolyl-2-yl)-2,5-diphenyltetrazolium bromide (MTT) colourimetric assay.

human TDO (GL261 cells transfected to over-express full length human TDO), sequence (P48775 whole entry): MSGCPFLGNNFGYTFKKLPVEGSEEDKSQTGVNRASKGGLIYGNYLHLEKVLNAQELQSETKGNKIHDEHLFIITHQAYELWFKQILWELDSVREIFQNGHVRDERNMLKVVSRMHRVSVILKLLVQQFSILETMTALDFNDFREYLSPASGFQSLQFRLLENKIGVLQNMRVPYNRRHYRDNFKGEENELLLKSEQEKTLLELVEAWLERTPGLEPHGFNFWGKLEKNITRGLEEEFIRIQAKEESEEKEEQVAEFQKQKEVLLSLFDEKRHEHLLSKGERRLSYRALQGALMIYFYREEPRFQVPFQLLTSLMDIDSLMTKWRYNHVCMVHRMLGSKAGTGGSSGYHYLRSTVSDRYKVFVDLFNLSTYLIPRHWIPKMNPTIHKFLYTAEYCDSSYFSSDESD
Recombinant human IDO1 (rhIDO1), sequence (P14902 whole entry): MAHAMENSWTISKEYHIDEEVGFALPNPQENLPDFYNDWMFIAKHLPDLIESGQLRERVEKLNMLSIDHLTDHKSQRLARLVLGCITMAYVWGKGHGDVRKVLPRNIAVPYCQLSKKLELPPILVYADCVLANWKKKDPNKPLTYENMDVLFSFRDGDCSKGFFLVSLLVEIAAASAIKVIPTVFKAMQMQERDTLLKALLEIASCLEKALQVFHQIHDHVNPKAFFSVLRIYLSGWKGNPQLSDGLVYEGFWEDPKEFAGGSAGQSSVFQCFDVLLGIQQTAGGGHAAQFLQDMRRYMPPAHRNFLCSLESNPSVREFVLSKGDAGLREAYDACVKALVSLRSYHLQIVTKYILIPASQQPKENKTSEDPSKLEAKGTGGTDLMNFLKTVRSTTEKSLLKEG

By IC50 is commonly meant the point on the concentration scale where inhibition reaches its midpoint. With `Nc1noc2nc(Cl)ccc12` [Compound 11, 6-Chloroisoxazolo[5,4-b]pyridin-3-amine], the IC50 in assay [1] was 1 to 10 µM; in assay [2], under 1 µM; in assay [3], over 100 µM; in assay [4], under 1 µM; in assay [5] it was over 100 µM.

As to `Nc1noc2nc(Oc3ccc(OC(F)(F)F)cc3)ccc12` [Compound 89, 6-(4-(Trifluoromethoxy)phenoxy)isoxazolo[5,4-b]pyridin-3-amine], the IC50 in assay [1] was over 100 µM; in assay [2], 10 to 100 µM; in assay [3], over 100 µM; in assay [4], 10 to 100 µM; in assay [5] it was over 100 µM.

For the compound `Cc1nc2onc(N)c2c(C)c1Cl` [Compound 3, 5-Chloro-4,6-dimethylisoxazolo[5,4-b]pyridin-3-amine], the IC50 was 1 to 10 µM in assay [1]; under 1 µM in assay [2]; over 100 µM in assay [3]; 1 to 10 µM in assay [4]; over 100 µM in assay [5].

Consider `Nc1noc2nc(Cl)c(F)cc12` [Compound 66, 6-Chloro-5-fluoroisoxazolo[5,4-b]pyridin-3-amine], for which the IC50 in assay [1] was under 1 µM; in assay [2], under 1 µM; in assay [3] it was over 100 µM; in assay [4], under 1 µM; in assay [5], over 100 µM.
